Entries after “also recorded” stand apart in the source; their conditions may differ.

Broadly, the inhibition is the drop in the measured response relative to a control, in per cent.

Experiment [1] deals with tumor necrosis factor-α (TNF-α) produced by LPS activated neutrophils. Nature of the experiment: TNF-α production by LPS activated neutrophils (ELISA). Format: cell-based, rat. How it is done: (§1) The anti-inflammatory properties of the cationic fraction, IDP, and the combination of IDP with chondroitin and glucosamine were determined by measuring their ability to inhibit the production of the inflammatory compounds, tumor necrosis factor-α (TNF-α) and interleukin-6 (IL-6) produced by LPS activated neutrophils. […] Neutrophils were isolated from rat blood and incubated in the presence of LPS. LPS is derived from bacterial cell walls and is used to mimic a 'bacterial infection'. […] Two of these cytokine are TNF-α and IL-6. The concentrations of both cytokines produced by neutrophils exposed to LPS and the various test substances are summarised graphically in FIGS. 1 and 2 respectively. […] Aliquots from each set of triplicates were combined, and duplicates assayed for cytokine concentrations. The plate blank was subtracted from each individual data point. A VersaMax 96-well plate reader was used to colorimetrically assess the production of TNF-α and IL-6 as determined by the ELISA, using Rat TNF-α ELISA kit, R&D Systems, Cat # RTA00, and Rat IL-6 ELISA kit, R&D Systems, Cat # […]. The average cytokine concentration, standard deviation and standard error were calculated for each data set (sample and concentration). Preliminary statistical significance was assessed using independent Student t-tests at α≦0.05.
(In an ELISA, binding on a coated surface is turned into a signal by an enzyme label.)

Experiment [2] deals with interleukin-6 (IL-6) produced by LPS activated neutrophils. Nature of the experiment: IL-6 production by LPS activated neutrophils (ELISA). The class given is cell-based, rat. The following applies: for effect on IL-6, in words / inhibition of IL-6 production: over the concentrations tested; for inhibition of IL-6 production: concentration not given. How it is done:
as §1

Where [3] appears, read: 300 μg/ml, relative to LPS only control.
Where [4] appears, read: Rattus norvegicus, Neutrophil, 100 μg/ml, relative to LPS only control.
The mark [5] stands for this setting: Rattus norvegicus, Neutrophil, 300 μg/ml, relative to LPS only control.
Where [6] appears, read: Rattus norvegicus, Neutrophil, read-out: TNF-α % Inhibition.
Setting [7] is: Rattus norvegicus, Neutrophil, read-out: IL-6 % Inhibition.
The mark [8] stands for this setting: Rattus norvegicus, Neutrophil, 4 μg/ml, relative to LPS only control.
The mark [9] stands for this setting: Rattus norvegicus, Neutrophil, 12 μg/ml, relative to LPS only control.
Setting [10] is: Rattus norvegicus, Neutrophil, 1 μg/ml, relative to LPS only control.
[11] abbreviates: Rattus norvegicus, Neutrophil, 10 μg/ml, relative to LPS only control.

Regarding `CC(=O)Oc1ccccc1C(=O)O` [Aspirin, acetylsalicylic acid], the “dose response on TNF-α, in words” value in experiment [1] is reported as “characteristic dose response”. Besides, the “TNF-α” value in experiment [1] (100 μg/ml) amounted to 159.17 pg/mL; in experiment [1] (300 μg/ml), 99.45 pg/mL. Moreover, in experiment [1] (setting [3]), the “TNF-α % Inhibition” value amounted to 63.9%. Further, the figures for the inhibition at 100 µg/mL in experiment [1] (setting [4]) and in experiment [2] (setting [4]) were 42.2% and 78.7%, respectively. Further, the inhibition at 300 µg/mL in experiment [1] (setting [5]) came to 64%; in experiment [2] (setting [5]), 100%. The “effect on TNF-α, in words” value in experiment [1] (over the concentrations tested) is “reducing both TNF-α and IL-6 levels significantly”. Moreover, in experiment [2], the “dose response on IL-6, in words” value is reported as “characteristic dose response”. Also, the “IL-6” value turned out to be 63.2 pg/mL in experiment [2] (100 μg/ml) and 0 pg/mL in experiment [2] (300 μg/ml). For the same compound, the “IL-6 % Inhibition” value in experiment [2] (setting [3]) is on record as “completely inhibited”. For the same compound, the “effect on IL-6, in words” value in experiment [2] is “reducing both TNF-α and IL-6 levels significantly”.
For the compound `CCN(CC)CCCC(C)Nc1ccnc2cc(Cl)ccc12` (stereo not shown) [Chloroquine], the “TNF-α” value in experiment [1] (50 μM) and in experiment [1] (100 μM) was 0 pg/mL each time. In addition, the inhibition at 50 µM in experiment [1] (setting [6]) and in experiment [2] (setting [7]) was 100% in each case. For the same compound, the inhibition at 100 µM in experiment [1] (setting [6]) and in experiment [2] (setting [7]) was 100% throughout. The “effect on TNF-α, in words” value in experiment [1] (over the concentrations tested) is “completely inhibiting; also recorded: completely inhibited”. For the same compound, the “IL-6” value in experiment [2] (50 μM) and in experiment [2] (100 μM) was 0 pg/mL in each case. Also, the “effect on IL-6, in words” value in experiment [2] is given as “completely inhibiting; also recorded: completely inhibited”.
As to `COc1cc(/C=C/C(=O)CC(=O)/C=C/c2ccc(O)c(OC)c2)ccc1O` [Curcumin, curcumin], in experiment [1], the “dose response on TNF-α, in words” value is given as “no apparent dose effect”. Besides, the “TNF-α” value was 146.71 pg/mL in experiment [1] (4 μg/ml) and 180.66 pg/mL in experiment [1] (12 μg/ml). In addition, the inhibition at 4 µg/mL in experiment [1] (setting [8]) amounted to 46.7%; in experiment [2] (setting [8]), 87%. For the same compound, the values for the inhibition at 12 µg/mL in experiment [1] (setting [9]) and in experiment [2] (setting [9]) were 34.4% and 89.5%, respectively. Besides, the “inhibition of TNF-α production” value in experiment [1] (over the concentrations tested, concentration not given) is “approximately 50%”. Also, the “dose response on IL-6, in words” value in experiment [2] is given as “no apparent dose effect”. In addition, the “IL-6” value amounted to 38.65 pg/mL in experiment [2] (4 μg/ml) and 31.14 pg/mL in experiment [2] (12 μg/ml). In experiment [2], the “effect on IL-6, in words” value was “close to complete inhibition”. In addition, in experiment [2], the “inhibition of IL-6 production” value was 90%.
Consider `O=C(O)Cc1ccccc1Nc1c(Cl)cccc1Cl` [Diclofenac], for which the “dose response on TNF-α, in words” value in experiment [1] is “inverse dose response”. Moreover, the “TNF-α” value in experiment [1] (1 μg/ml) is 132.01 pg/mL; in experiment [1] (10 μg/ml) it was 151.97 pg/mL; in experiment [1] (100 μg/ml), 342.46 pg/mL; in experiment [1] (100 μg/ml, listed as Voltaren (Diclofenac)) it was 342 pg/mL. For the same compound, the “TNF-α % Inhibition” value in experiment [1] (1 μg/ml, relative to LPS only control) is on record as 52.1%. Also, the “effect on TNF-α, in words” value in experiment [1] (100 μg/ml) was “appeared to stimulate TNF-α”. Besides, the results for the inhibition at 1 µg/mL in experiment [1] (setting [10]) and in experiment [2] (setting [10]) were 52% and 73.6%, respectively. In addition, the inhibition at 10 µg/mL is 44.8% in experiment [1] (setting [11]) and 69.5% in experiment [2] (setting [11]). Besides, the inhibition at 100 µg/mL in experiment [1] (setting [4]) was -24.4%; in experiment [2] (setting [4]), 37.4%. Also, the “dose response on IL-6, in words” value in experiment [2] is “inverse dose response”. The entries for the “IL-6” value in experiment [2] (1 μg/ml), in experiment [2] (10 μg/ml) and in experiment [2] (100 μg/ml) were 78.39 pg/mL, 90.55 pg/mL and 185.71 pg/mL, respectively. Further, the “inhibition of IL-6 production” value in experiment [2] (listed as Voltaren (Diclofenac)) is reported as 74-38%.

The values above are taken from US20120244226A1, “TREATMENT COMPOSITION AND METHOD” (DEC INTERNATIONAL NZ LIMITED, priority 2009, published 2012).
